In article PMC7038234, “Screening of Natural Extracts for Inhibitors against Japanese Encephalitis Virus Infection” (Antimicrobial Agents and Chemotherapy, 2020):
Like-named read-outs stand apart in the source and are kept apart here.

Columns and labels:
JEV [1] = conditions: cited from earlier work
[2] = Cytotoxicity / cell viability on Vero cells; conditions: African green monkey
JEV [3] = assay type: cell-based, Japanese encephalitis virus
JEV strain SA14 [4] = assay: Immunofluorescence staining assay (IFA), SA14 infection of Vero cells
JEV strain SA14 [5] = assay: qRT-PCR of JEV RNA levels in Vero cell lysates; assay type: cell-based, Japanese encephalitis virus; conditions: Vero cells, high-, middle- and low-dose-treated groups
JEV AT31 = assay: Addition of sodium and potassium assay (plaque assay); conditions: Vero cells, AT31, NaCl 0-100 mM, KCl 0-25 mM
JEV SA14 replicon = assay: JEV reporter replicon assay (Renilla luciferase) in Huh-7 cells; conditions: for JEV RNA synthesis (replicon luciferase signal): 24 h postelectroporation
[6] = test system: JEV strains AT31 and SA14; assay: Plaque assay of virus production in culture supernatants (Vero, Huh-7, U251 cells); assay type: cell-based, Japanese encephalitis virus
JEV (AT31) = assay: Antiviral efficacy in JEV-infected BALB/c mice; assay type: in vivo, BALB/c mouse
Experimental: Adult male BALB/c mice (4 weeks) were randomly divided into three groups: the JEV-infected and vehicle (0.75% DMSO in normal saline)-treated group, the JEV-infected and ouabain-treated group, and the ouabain-treated group. For infection, mice were infected intraperitoneally (i.p.) with a dose of 1 × 10^6 PFU JEV (AT31). The infected mice were i.p. administered with ouabain at 3 mg/kg of body weight or a vehicle control every day for 21 consecutive days. Mice were sacrificed at day 1, 3, 7, 10, or 21, depending on the experimental design. Blood, spleen, and brain samples were collected for plaque assay, qRT-PCR, and histopathology investigation (Vectra ss; PerkinElmer).
The viral burden was determined by plaque assay. The samples were weighed and homogenized in 300 μl of PBS. The homogenates were clarified by centrifugation (2,000 × g at 4°C) for 15 min and then diluted serially prior to infection of BHK-21 cells. The viral titer was adjusted for sample volume and tissue weight to calculate the titer as PFU/g.
Tissue samples and blood from JEV-infected mice were extracted with the RNAprep pure tissue kit (Tiangen; catalog no. DP431) and RNAprep pure blood kit (Tiangen; catalog no. DP433), respectively. JEV RNA levels were determined by one-step qRT-PCR on ABI Real-Time PCR systems using standard cycling conditions. The viral burden was calculated on a standard curve produced using serial 10-fold dilutions of plasmids carrying the infectious clone.
For histopathology investigation, brain tissues were collected from the mice and fixed in 4% paraformaldehyde; the hematoxylin-eosin staining protocol was followed for tissue staining.

[7] = JEV-infected BALB/c mice, ouabain 3 mg/kg i.p. daily, 21 days

## CCCCCCN(CCCCCC)C(=O)Cc1c(-c2ccc(F)cc2)[nH]c2ccccc12 [FGIN-1-27]
JEV [1]
  JEV infection: reduced the JEV infection in vitro

## COC1=CC23CCCN2CCc2cc4c(cc2C3C1O)OCO4 (centres unmarked) [cephalotaxlen]
[2]
  CC50: > 100 µM

## C[C@H]1O[C@@H](O[C@H]2[C@@H](O)C[C@H](O[C@H]3[C@@H](O)C[C@H](O[C@H]4CC[C@@]5(C)[C@H](CC[C@@H]6[C@@H]5C[C@@H](O)[C@]5(C)[C@@H](C7=CC(=O)OC7)CC[C@]65O)C4)O[C@@H]3C)O[C@@H]2C)C[C@H](O)[C@@H]1O [digoxin]
JEV [3]
  adaptive (drug-resistant) mutant: no adaptive mutant was found
JEV strain SA14 [4]; digoxin 392 nM
  SA14 reproduction: greatly inhibited
JEV strain SA14 [5]
  attenuated RNA levels of the SA14 strain: above 40%
JEV AT31
  dependence of JEV-inhibiting effect on extracellular NaCl and KCl: positively correlated with extracellular NaCl but inversely correlated with KCl
JEV SA14 replicon
  initial translation of replicon RNA: neither drug inhibited
  JEV RNA synthesis (replicon luciferase signal): inhibited JEV RNA synthesis in a dose-dependent manner
[6]; Vero cells, plaque assay, highest concentration
  reduction of AT31 and SA14 virus production: 4 to 6 log units
[2]
  CC50: > 100 µM

## Cc1cc(O)c2c(c1)C(=O)c1cc(O)cc(O)c1C2=O [emodin]
[2]
  CC50: > 100 µM

## O[C@H]1[C@H]2c3cc4c(cc3CN3CCC(=C[C@@H]1O)[C@H]23)OCO4 [lycorine]
[2]
  CC50: > 100 µM

## COC(=O)C1=C(C)NC(C)=C(C(=O)OCCN2CCN(C(c3ccccc3)c3ccccc3)CC2)C1c1cccc([N+](=O)[O-])c1 (centres unmarked) [manidipine]
JEV [1]
  JEV infection: inhibited JEV infection in vitro and in vivo

## C[C@@H]1O[C@@H](O[C@H]2C[C@@H](O)[C@]3(CO)[C@H]4[C@H](O)C[C@]5(C)[C@@H](C6=CC(=O)OC6)CC[C@]5(O)[C@@H]4CC[C@]3(O)C2)[C@H](O)[C@H](O)[C@H]1O [ouabain]
JEV [3]
  adaptive (drug-resistant) mutant: no adaptive mutant was found
JEV strain SA14 [4]; ouabain 98 nM
  SA14 reproduction: greatly inhibited
JEV strain SA14 [5]
  attenuated RNA levels of the SA14 strain: above 40%
JEV AT31
  dependence of JEV-inhibiting effect on extracellular NaCl and KCl: positively correlated with extracellular NaCl but inversely correlated with KCl
JEV (AT31); [7]
  animals survived: 8 out of 14
  survival rate: ~60%
JEV (AT31); day 7 postinfection, meningitis, perivascular cuffing, vacuolar degeneration
  histopathological changes in brain: remarkably alleviated
JEV (AT31); day 21 postinfection, plaque assay
  plaques from brain on day 21 postinfection: no plaques formed
JEV (AT31); days 7, 10 and 21 postinfection, versus untreated infected mice
  viral load in brain (plaque assay): significantly reduced viral load
JEV (AT31); qRT-PCR, days 1 and 3 postinfection
  effect on viral titers in the brain at the preclinical stage: little effect
JEV (AT31); qRT-PCR, earlier time points (days 1 and 3)
  effect on decreasing viral titers in the blood and spleen: little effect
JEV (AT31); uninfected BALB/c mice, ouabain 3 mg/kg i.p. daily
  behavior of mice treated with ouabain alone: little abnormal behavior
JEV SA14 replicon
  initial translation of replicon RNA: neither drug inhibited
  JEV RNA synthesis (replicon luciferase signal): inhibited JEV RNA synthesis in a dose-dependent manner
[6]
  reduction of AT31 and SA14 virus production: 4 to 6 log units
[2]
  CC50: > 100 µM

## Oc1cc(O)c2c(c1)OC(c1ccc(O)c(O)c1)C(OC1(c3ccc(O)c(O)c3)Oc3cc(O)cc(O)c3C(O)C1O)C2 (centres unmarked) [procyanidin]
[2]
  CC50: > 100 µM

## COc1cc2c(c(OC)c1OC)-c1c(cc(OC)c(OC)c1OC)C[C@H](C)[C@H](C)C2 [schizandrin A]
[2]
  CC50: 100 µM

## COc1cc2c(c(OC)c1OC)-c1c(cc3c(c1OC)OCO3)CC(C)C(C)C2 (centres unmarked) [schizandrin B]
[2]
  CC50: > 100 µM
